According to patent US10344019B2 (priority 2010, dated 2019):

Tests used:
Format in all cases: cell-based
[1] = system: HCV 1a RLuc cells (dicistronic genotype 1a H77 replicon, RLuc reporter); test: microbe, parasite or virus in culture; settings: Hepatitis C virus, genotype 1a H77 RLuc replicon; read-out: 1a
Procedure, shortened: (§1)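 Renilla luciferase HCV replicon cells: dicistronic 1b Con1, 1a H77 or 2a JFH-1 replicons, or a JFH-1 chimera carrying J6 NS5A (M31 present). Compound in DMSO serial dilutions, 72 h incubation, then lysis and luciferase read. EC50 by non-linear regression.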

[2] = system: HCV 1b RLuc cells (dicistronic genotype 1b Con1 replicon, RLuc reporter); test: microbe, parasite or virus in culture; settings: Hepatitis C virus, read-out: 1b (nM)
Procedure, shortened: as §1

[3] = system: HCV 2a JFH-1 Rluc cells (dicistronic genotype 2a JFH-1 replicon, RLuc reporter); test: microbe, parasite or virus in culture; settings: Hepatitis C virus, genotype 2a JFH-1 RLuc replicon; read-out: 2a JFH
Procedure, shortened: as §1

[4] = system: HCV 2b Rluc cells (NS5A chimeric genotype 2a JFH-1 replicon with genotype 2b MD2b-1 NS5A gene, M31 present); test: microbe, parasite or virus in culture; settings: Hepatitis C virus, read-out: 2b
Procedure, shortened: (§2)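 Replicon cells stably carrying the listed RLuc-encoding dicistronic replicons were seeded and treated with DMSO serial dilutions of compound (10 mM stocks) diluted into culture medium. After 72 h, cells were lysed and Renilla luciferase activity measured. EC50 was derived by non-linear regression.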

[5] = system: HCV 3a RLuc cells (NS5A chimeric genotype 1b Con1 replicon with consensus genotype 3a NS5A gene); test: microbe, parasite or virus in culture; settings: Hepatitis C virus, read-out: 3a, genotype 3a NS5A chimeric replicon
Procedure, shortened: as §2

[6] = system: Q30R in genotype 1a NS5A, 1a Rluc replicon transfected into Huh-7 cured-51 cells; test: HCV replicon assay, resistance mutant 1a Q30R; settings: Hepatitis C virus, Huh-7, read-out: 1a Q30R
Procedure: Evaluation of cell-based anti-HCV activity: Antiviral potency (EC50) was determined using a Renilla luciferase (RLuc)-based HCV replicon reporter assay. To perform the assay for genotype 1 and 2a JFH-1, HCV 1b RLuc cells (harboring a dicistronic genotype 1b Con1 replicon that encodes a RLuc reporter), or HCV 1a RLuc cells (harboring a dicistronic genotype 1a H77 replicon that encodes a RLuc reporter), or HCV 2a JFH-1 Rluc cells (harboring a dicistronic genotype 2a JFH-1 replicon that encodes a RLuc reporter) were dispensed into 384-well plates. To perform the assay for genotype 2a (with M31 present) or 2b, HCV 2a Rluc or 2b Rluc cells (both with M31 present) harboring a dicistronic NS5A chimeric genotype 2a JFH-1 replicon that encodes a RLuc reporter and either genotype 2a J6 strain NS5A gene or genotype 2b MD2b-1 NS5A gene (based on Los Alamos HCV database isolates, both with M31 present) respectively, were dispensed into 384-well plates. To perform the assay for genotype 3 and 4, HCV 3a RLuc or 4a Rluc cells harboring a dicistronic NS5A chimeric genotype 1b Con1 replicon that encodes a RLuc reporter and either a consensus genotype 3a NS5A gene or genotype 4a NS5A gene (based on Los Alamos HCV database isolates) respectively, were dispensed into 384-well plates. Compounds were re-suspended in DMSO at a concentration of 10 mM and serially diluted in DMSO either manually or using an automated pipeting instrument. Serially diluted compounds were mixed with cell culture media and added to the seeded cells. […] 72 hours later, cells were lysed and Renilla luciferase activity quantified as recommended by the manufacturer (Promega-Madison, Wis.). Non-linear regression was performed to calculate EC50 values.
To determine the antiviral potency (EC50) against resistance mutants, resistance mutations, including M28T, Q30R, Q30H, L31M, and Y93C in genotype 1a NS5A and Y93H in genotype 1b NS5A, were introduced individually into either 1a Rluc or 1b Rluc replicons described above by site directed mutagenesis. Replicon RNA of each resistant mutant was transfected into Huh-7 cured-51 cells and antiviral potency was determined on these transfected cells as described above.

[7] = system: HCV 2a Rluc cells (NS5A chimeric genotype 2a JFH-1 replicon with genotype 2a J6 strain NS5A gene, M31 present); test: HCV replicon reporter assay, genotype 2a J6 (M31 present); settings: Hepatitis C virus, read-out: 2a J6
Procedure, shortened: as §1

Structure (SMILES) | EC50 [1] [nM] | EC50 [2] [nM] | EC50 [3] [nM] | EC50 [4] [nM] | EC50 [5] [nM] | EC50 [6] [nM] | EC50 [7] [nM]
COC(=O)N[C@H](C(=O)N1[C@@H](C)CC[C@H]1c1ncc(-c2cc3c4c(c2)OCc2cc(-c5cnc([C@@H]6CC[C@H](C)N6C(=O)[C@@H](NC(=O)OC)[C@@H](C)OC)[nH]5)cc(c2-4)OC3)[nH]1)[C@@H](C)OC [Example 616] | 0.001 to 0.999 | 0.018 | 0.001 to 0.999 | 0.001 to 0.999 | 0.001 to 0.99 | 0.001 to 0.999 | 0.001 to 0.999
COC(=O)N[C@H](C(=O)N1[C@@H](C)CC[C@H]1c1ncc(-c2ccc3c(c2)COc2cc4c(ccc5nc([C@@H]6C[C@H](C)CN6C(=O)[C@H](NC(=O)OC)c6ccccc6)[nH]c54)cc2-3)[nH]1)C(C)C [Example 617] | 0.001 to 0.999 | 0.005 | 0.001 to 0.999 | 0.001 to 0.999 | 0.001 to 0.99 | 0.001 to 0.999 | 0.001 to 0.999
COC[C@H]1C[C@@H](c2nc3ccc4cc5c(cc4c3[nH]2)OCc2cc(-c3cnc([C@@H]4CCCN4C(O)[C@@H](NC(=O)OC)[C@@H](C)OC)[nH]3)ccc2-5)N(C(=O)[C@H](NC(=O)OC)c2ccccc2)C1 (stereo partly drawn) [Example 618] | 0.001 to 0.999 | 0.02 | 0.001 to 0.999 | 0.001 to 0.999 | 0.001 to 0.99 | 0.001 to 0.999 | 0.001 to 0.999
COC[C@H]1C[C@@H](c2ncc(-c3ccc4c(c3)COc3cc5c(ccc6nc([C@@H]7C[C@H](C)CN7C(=O)[C@@H](NC(=O)OC)C(C)C)[nH]c65)cc3-4)[nH]2)N(C(=O)[C@H](NC(=O)OC)c2ccccc2)C1 [Example 622] | 0.001 to 0.999 | 0.016 | 0.001 to 0.999 | 0.001 to 0.999 | 0.001 to 0.99 | 0.001 to 0.999 | 0.001 to 0.999
COC[C@H]1C[C@@H](c2ncc(-c3ccc4c(c3)COc3cc5c(ccc6nc([C@@H]7CCCN7C(=O)[C@H](NC(=O)OC)c7ccccc7)[nH]c65)cc3-4)[nH]2)N(C(=O)[C@@H](NC(=O)OC)C(C)C)C1 [Example 625] | 0.001 to 0.999 | 0.031 | 0.001 to 0.999 | 0.001 to 0.999 | 0.001 to 0.99 | 0.001 to 0.999 | 0.001 to 0.999
COC[C@H]1C[C@@H](c2ncc(-c3ccc4c(c3)COc3cc5c(ccc6nc([C@@H]7CCCN7C(=O)[C@H](NC(=O)OC)c7ccccc7)[nH]c65)cc3-4)[nH]2)N(C(=O)[C@@H](NC(=O)OC)[C@@H](C)OC)C1 [Example 626] | 0.001 to 0.999 | 0.03 | 0.001 to 0.999 | 0.001 to 0.999 | 0.001 to 0.99 | 0.001 to 0.999 | 0.001 to 0.999
COC[C@H]1C[C@@H](c2ncc(-c3ccc4c(c3)COc3cc5c(ccc6nc([C@@H]7C[C@H]8C[C@H]8N7C(=O)[C@@H](NC(=O)OC)C(C)C)[nH]c65)cc3-4)[nH]2)N(C(=O)[C@H](NC(=O)OC)c2ccccc2)C1 [Example 633] | 0.001 to 0.999 | 0.02 | 0.001 to 0.999 | 0.001 to 0.999 | 0.001 to 0.99 | 0.001 to 0.999 | 0.001 to 0.999
COC[C@H]1C[C@@H](c2ncc(-c3ccc4c(c3)COc3cc5c(ccc6nc([C@@H]7C[C@@H]8C[C@@H]8N7C(=O)[C@@H](NC(=O)OC)C(C)C)[nH]c65)cc3-4)[nH]2)N(C(=O)[C@H](NC(=O)OC)c2ccccc2)C1 [Example 636] | 0.001 to 0.999 | 0.011 | 0.001 to 0.999 | 0.001 to 0.999 | 0.001 to 0.99 | 0.001 to 0.999 | 0.001 to 0.999
CC[C@H](C)[C@H](NC(=O)OC)C(=O)N1C[C@@H](C)C[C@H]1c1ncc(-c2ccc3c(c2)COc2cc4c(ccc5nc([C@@H]6C[C@H](COC)CN6C(=O)[C@H](NC(=O)OC)c6ccccc6)[nH]c54)cc2-3)[nH]1 [Example 639] | 0.001 to 0.999 | 0.011 | 0.001 to 0.999 | 0.001 to 0.999 | 0.001 to 0.99 | 0.001 to 0.999 | 0.001 to 0.999
